In patent US6919306B2, “Method of skin care” (Yaizu Suisankagaku Industry Co. Ltd., priority 1999, dated 2005):
Marks after values point to notes of the source that are not given here.

Experiments:
[1] = tested on: females having a tendency of xeroderma and rough skin; assay: Dermatologic examination and doctor's questions, double blind long-term ingestion study; format: in vivo, human; settings: for Face, Cosmetic dermatitis, average score / Face, Spread of cosmetics, average score / Whole body, Desquamation, average score / Whole body, Erosion, average score / Whole body, Flushing, average score / Whole body, Papula, average score / Whole body, Pruritus, average score / Whole body, Vesicle, average score / Face, Dessication, average score / Face, Flushing, average score / General observation, average score / Whole body, Dessication, average score: NAG 1,000 mg/day oral
Description: (§1) To 22 females usually having a tendency of xeroderma and rough skin (average age: 25.5±10.7), a double blind long-term ingestion study was carried out in the following manners provided that a […] were given to a control group.
(§2) NAG-containing tablets-administered group (NAG group, n=11): Tablets prepared similarly as in Example 1 as described below (NAG amount: 200 mg/tablet), were ingested at a rate of 5 tablets/day (NAG 1,000 mg/day, as a daily dose).
Placebo-administered group (Placebo group, n=11): Tablets prepared similarly provided that lactose was used instead of NAG, were ingested at a rate of 5 tablets/day.
(§3) The ingestion period was 8 weeks in each group. The inspection was in principle carried out just before the start of ingestion, 4 weeks after the start of ingestion, and just before the completion of ingestion (8 weeks after the start of ingestion).
In the observation of whole body, 4 ranks evaluation (0: no symptom, 1: slight, 2: medium, 3: severe) was conducted with respect to pruritus, desiccation, flushing, erosion, desquamation, papula, vesicle and tumefaction. In the observation of face, 4 ranks evaluation was similarly conducted with respect to cosmetic dermatitis, desiccation, flushing and spread of cosmetics. Further, amelioration of general symptom including the observations of the whole body and face, was evaluated as a general observation. These evaluations were conducted by a plurality of doctors designated by Japan Dermatologic Science Society. The results are shown in Table 3 (average value of each score of each group).

[2] = Solubility of natural-type NAG in water; format: physicochemical; settings: water of 25° C.
From the text: In the present invention, as a carrier for the skin care agent, foods such as confectioneries, powdered soups, dairy products and beverages, may, for example, be mentioned. As such foods, specifically, gum, candies, tabletted confectioneries, chocolate, jelly, cookies, snacks, corn potage soup, consomme soup, milk, pudding, yogurt, ice cream, lactic acid beverages, alcohol beverages, vitamin beverages, mineral beverages, coffee beverages, near water, nutrition drinks, and the like, may be mentioned.

[3] = tested on: moisture content of epidermis; assay: Skin moisture content by Corneometer CM825; format: in vivo, human; settings: for Moisture content, Left upper arm / Moisture content, Poll / Moisture content, Below left eye: NAG 1,000 mg/day oral
Description: as §1, §2, §3
The moisture content was measured by using Corneometer CM825 (manufactured by Courage+Khazaka Electronic Gmbh). This apparatus measures the moisture content of epidermis by measuring the electrostatic capacity via corneal layer, and is known to be less in error as compared with a conventional impedance method or infrared spectrophotometric method.
(§4) Measurement sites were 1 cm below the left eye, medial part of left upper arm (3 cm above the elbow), and poll (3 cm below spinous process of neck). With respect to the oil and fat content, since most subjects were scored at 0 at the left upper arm and the poll, only the site below the left eye was measured from the 2nd inspection.
(§5) In order to keep the environments for the measurements as equal as possible, a room having its internal conditions adjusted to be constant was prepared before the measurements (room temperature: 18 to 20° C., humidity: 45 to 60%), and the subjects were asked to keep in rest in this room for at least 30 minutes. Further, with respect to the makeup at the measurement site, it was in principle prohibited to put on makeup from 60 minutes before the inspection.

[4] = NAG kinetics study with 14C labelled NAG; format: in vivo; settings: rats, single forced oral 250 mg/kg of body weight
Description: A mixture of ^14C labelled NAG (1 st-position carbon atom-labelled product: manufactured by Amasham Life Science Co.) and unlabelled NAG (the one prepared in PREPARATION EXAMPLE 1) was given to rats by single forced oral administration (250 mg/kg of body weight) for in vivo kinetics study. […] About 60% of the administered NAG was utilized as an energy source and excreted as CO2 to expiration. Further, about 20% was excreted to urine and stool.

[5] = tested on: Wister rats (SPF); assay: Acute toxic test of NAG; format: in vivo; settings: rat
Description: To each of five males and five females of Wister rats (SPF), NAG was given by a single oral administration in an amount of 5,000 mg per kg of body weight. After the administration, these rats were bred for 14 days and observed, and no death was recognized. It was also recognized that the 50% lethal dose (LD50) to the rats was at least 5,000 mg per kg of body weight.

[6] = tested on: oil and fat content of skin; assay: Skin oil and fat content by Sebumeter SM810; format: in vivo, human; settings: for Oil and fat content, Below left eye: NAG 1,000 mg/day oral
Description: as §1, §2, §3
The oil and fat content was measured by using Sebumeter SM810 (manufactured by Courage+Khazaka Electronic Gmbh). In use of this apparatus, a special tape which absorbs only the oil and fat content is attached to the measurement site for 30 seconds and the oil and fat content is measured by the change of light transmittance of the tape. This apparatus is known not to be affected by humidity, etc.
as §4, §5

[7] = after 4 weeks, score 0-3, p < 0.05
[8] = after 8 weeks, score 0-3, p < 0.05
[9] = NAG group, 1,000 mg/day oral, 8 weeks

CC(=O)N[C@H]1C(O)O[C@H](CO)[C@@H](O)[C@@H]1O (stereo partly drawn) [NAG, N-acetylglucosamine]
Face, Cosmetic dermatitis, average score ([1]; after 4 weeks, score 0-3): 1.00 | Face, Spread of cosmetics, average score ([1]; after 4 weeks, score 0-3): 1.33 | Whole body, Desquamation, average score ([1]; after 4 weeks, score 0-3): 1.33 | Whole body, Erosion, average score ([1]; after 4 weeks, score 0-3): 1.00 | Whole body, Flushing, average score ([1]; after 4 weeks, score 0-3): 0.80 | Whole body, Papula, average score ([1]; after 4 weeks, score 0-3): 1.50 | Whole body, Pruritus, average score ([1]; after 4 weeks, score 0-3): 0.90 | Whole body, Vesicle, average score ([1]; after 4 weeks, score 0-3): 2.00 | Face, Dessication, average score ([1]; after 4 weeks, score 0-3, p < 0.01): 1.18** | Face, Flushing, average score [1, 7]: 1.10* | General observation, average score [1, 7]: 1.27* | Whole body, Dessication, average score [1, 7]: 1.36* | Face, Cosmetic dermatitis, average score ([1]; after 8 weeks, score 0-3): 1.33 | Whole body, Desquamation, average score ([1]; after 8 weeks, score 0-3): 1.00 | Whole body, Erosion, average score ([1]; after 8 weeks, score 0-3): 0.00 | Whole body, Flushing, average score ([1]; after 8 weeks, score 0-3): 0.40 | Whole body, Papula, average score ([1]; after 8 weeks, score 0-3): 1.50 | Whole body, Pruritus, average score ([1]; after 8 weeks, score 0-3): 0.60 | Whole body, Vesicle, average score ([1]; after 8 weeks, score 0-3): 2.00 | Face, Dessication, average score [1, 8]: 1.00* | Face, Flushing, average score [1, 8]: 1.10* | Face, Spread of cosmetics, average score [1, 8]: 0.83* | General observation, average score [1, 8]: 1.09* | Whole body, Dessication, average score [1, 8]: 1.00* | Face, Dessication, average score ([1]; before ingestion, score 0-3): 2.00 | Face, Flushing, average score ([1]; before ingestion, score 0-3): 1.80 | Face, Spread of cosmetics, average score ([1]; before ingestion, score 0-3): 1.83 | General observation, average score ([1]; before ingestion, score 0-3): 1.82 | Whole body, Desquamation, average score ([1]; before ingestion, score 0-3): 1.33 | Whole body, Dessication, average score ([1]; before ingestion, score 0-3): 2.09 | Whole body, Erosion, average score ([1]; before ingestion, score 0-3): 2.00 | Whole body, Flushing, average score ([1]; before ingestion, score 0-3): 1.40 | Whole body, Papula, average score ([1]; before ingestion, score 0-3): 1.00 | Whole body, Pruritus, average score ([1]; before ingestion, score 0-3): 1.40 | Whole body, Vesicle, average score ([1]; before ingestion, score 0-3): 1.00 | Face, Cosmetic dermatitis, average score ([1]; before ingestion, score 0 no symptom to 3 severe): 1.00 | symptom of whole body: "dessication" ([1]; NAG group, 1,000 mg/day oral, 8 weeks, also significant in placebo group): significant improvements | symptoms of face: "dessication", "flushing" and "spread of cosmetics" ([1]; NAG group, 1,000 mg/day oral, 8 weeks, placebo no significance): significant improvements | general observation ([1]; NAG group, 1,000 mg/day oral, 8 weeks, placebo no significant improvement): significant improvements | solubility in water [2]: 32 % by weight | Moisture content, Left upper arm ([3]; after 4 weeks): 38.7 ± 5.8 | Moisture content, Poll ([3]; after 4 weeks): 51.9 ± 5.4 | Moisture content, Below left eye ([3]; after 4 weeks, p < 0.05): 58.8 ± 14.2 | Moisture content, Left upper arm ([3]; after 8 weeks): 36.2 ± 6.8 | Moisture content, Poll ([3]; after 8 weeks): 52.1 ± 10.9 | Moisture content, Below left eye ([3]; after 8 weeks, p < 0.01): 56.2 ± 8.4 | Moisture content, Below left eye ([3]; before ingestion): 48.0 ± 8.8 | Moisture content, Left upper arm ([3]; before ingestion): 37.8 ± 7.8 | Moisture content, Poll ([3]; before ingestion): 51.3 ± 5.6 | moisture content at the site below the left eye, change [3, 9]: significant increase | absorption after oral administration [4]: rapidly absorbed | share excreted to urine and stool [4]: about 20% | time at which average concentration of radioactivity in blood reached the maximum value [4]: 4 h | residual transferred to tissues (e.g. cartilaginous and fatty tissues) ([4]; autoradiography and tissue radioactivity): about 20% | 50% lethal dose (LD50) ([5]; both, Wister, in vivo, po, 14 days): at least 5,000 mg per kg of body weight | safety on oral administration ([5]; orally administered 5 g per kg of body weight): safety is confirmed | Oil and fat content, Below left eye ([6]; after 4 weeks): 53.0 ± 29.2 | Oil and fat content, Below left eye ([6]; after 8 weeks, p < 0.05): 40.8 ± 18.7 | Oil and fat content, Below left eye ([6]; before ingestion): 63.8 ± 42.3 | oil and fat content, change [6, 9]: significant decrease
